Where a name gives a salt, the structure may show the parent alone.
Assays:
mouse splenocytes = assay: Activin A and BAFF expression in mouse splenocytes; assay type: cell-based; details: low dose P4N
Procedure: FIGS. 14A-14C depict P4N-induced mouse B cell proliferation via the Activin A/BAFF pathway. (A) The proliferation of P4N-treated splenocytes. Splenocytes isolated from three mice were individually treated with increasing concentrations of P4N for 48 h and their proliferation was analyzed by MTT assay. The data are reported as the proliferation index. […] (B) The proliferation of B cells in mouse splenocytes treated with low doses of P4N. After treatment with P4N for 48 h, B-cells were identified by CD19 surface marker staining and the cell number was calculated following a flow cytometer analysis. […] Levels of Activin A and BAFF transcripts were measured by RT-PCR. Each sample obtained from 3 different mice; N, no treatment; P, P4N-treatment.
Reverse transcription PCR. Human PBMCs or THP-1 cells were treated with P4N, and then the mRNA expression of INHBA and BAFF in these cells was measured by reverse transcription PCR. Briefly, total cellular RNA was extracted with Trizol reagent (Invitrogen) and reverse-transcribed into cDNA using the Superscript RT-kit (Invitrogen). The cDNA of INHBA and BAFF were then amplified by PCR. GAPDH cDNA in the samples was used to normalize the loading amounts in each reaction. Finally, PCR products were resolved by electrophoresis on 2% agarose gels and visualized with ethidium bromide.

Human B or T cells = assay: Proliferation of isolated human B or T cells, MTT assay; assay type: cell-based
Procedure: FIG. 10 depicts the effects of P4N on cell proliferation. Human B or T cells were isolated from the PBMCs by negative selection using a magnetic sorting device (Miltenyi Biotec, Auburn, Calif.). Cell proliferation was determined by an MTT assay.
Total B-cells were isolated from human PBMCs or mouse splenocytes by negative selection using a magnetic sorting device (Miltenyi Biotec, Auburn, Calif.). Briefly, PBMCs were incubated with a cocktail of biotin-conjugated antibodies, followed by microbead-conjugated anti-biotin Abs for magnetic depletion. B-cells were eluted according to the manufacturer's protocols. Human blood samples were collected from healthy individuals following an IRB-approved protocol and in agreement with the Committee for Research Ethics Board of Chung Shan Medical University Hospital.

PBMCs = assay: Cytokine and chemokine profile of P4N treated PBMC, Bio-Plex; assay type: cell-based, human; details: 3 μM P4N
Procedure: PBMCs isolated from 7 healthy donors were treated with 3 μM of P4N for 48 h. Supernatants were collected and analyzed for human cytokines using the Bio-Plex assay. Shown are the changed results of the production of 27 human cytokines when PBMCs were treated with P4N in three independent experiments. The levels of IL-4, IL-5, IL-7, IL-9, Eotaxin and FGF were undetectable.
The effects of P4N on the profile of cytokine expression. PBMCs (2×10^6 cells/ml) from seven healthy individuals were seeded in each well of a 24-well microplate and treated with 3 μM of P4N for 24 h. Cell supernatants were collected for analysis of cytokine levels by a cytokine multiplex assay using the Bio-Plex Pro Human Cytokine Standard Group I 27-Plex, following the manufacturer's protocol (Bio-Rad, Hercules, Calif.). The change levels of cytokine were calculated as follows: Change level=(value of the P4N-treated cells)/(value of the untreated cells)×100%.

CT26 tumors = assay: P4N in B cell or CD8+ T cell depleted mice bearing CT26 tumors; assay type: in vivo, BALB/c mice; details: 5 mg/kg intratumoral every week
Procedure: FIGS. 1A-1C illustrate the antitumor effects of low dose P4N in immune competent and deficient mice. (A) BALB/c (n=10/group) and nude mice (n=10/group) bearing CT26 tumors were treated with a single intratumoral injection of 2.5 or 5 mg/kg of P4N N. (B) B cell or CD8+ T cell depleted BALB/c mice (n=9/group) bearing CT26 tumors were treated with 5 mg/kg of P4N by intratumoral injection every week. Tumor volumes were measured every 2 days after treatments. Significant differences between the P4N groups and the PBS group were identified and labeled with *:p<0.05 and **:p<0.01. (C) Immunohistochemistry staining was used to monitor the infiltrations of macrophage (F4/80), DC (CD11c), T (CD3) and B cells (CD20) in the tumor area after a single intratumoral injection of PBS or 5 mg/kg of P4N. The photos are representative of the mice sacrificed on day 7 after the treatments.
P4N treatments in vivo. BALB/c or BALB/c/nu mice (6 week old) were inoculated subcutaneously with 1×10^6 CT-26 cells in 100 μl PBS. When the average tumor mass reached 50 mm^3, the animals were treated with 2.5 mg/kg or 5 mg/kg of P4N in one intratumoral injection. Subsequently, the tumor volumes were measured using a caliper every 2 days, and the volumes were calculated using the following formula: volume (mm^3)=length×width×height. Before sacrifice, the sera of the mice were collected for experimental use. […]

CT-26 cells = assay: Binding of anti-sera to CT-26 tumor tissue and cell surface antigens; design: species or system mouse; details: flow cytometry, FIG. 15
Procedure: FIG. 15 is a graph showing the affinities of anti-sera against CT-26 cells after different lengths of incubation. Tumor antigens on the surface of CT26 cells were indirectly probed with P4N and PBS anti-sera and FITC-conjugated goat anti-mouse IgG antibody. The specific fluorescent activities were measured by flow cytometry.
Sections of CT-26 tumors from untreated mice were incubated with a 200-fold dilution of normal sera, PBS anti-sera or P4N anti-sera at 4° C. overnight. Sequentially, the sections were recognized using an HRP-conjugated anti-mouse IgG antibody (1:1500 dilution; Santa Cruz Biotechnology), and then developed, counterstained and photographed as described above.
Immunofluorescence analysis of cell surface tumor antigens. CT-26 cells were seeded on glass cover slides, and fixed with 4% (w/w) paraformaldehyde The fixed cells were then incubated with normal sera, PBS anti-sera or P4N anti-sera for 1 h and detected with secondary antibodies conjugated to Alexa Fluor 568 (Molecular Probes, Eugene, USA). Alexa Fluor 488-conjugated Concanavalin A (ConA; Molecular Probes) and DAPI (Molecular Probes) were used to label the plasma membrane and nucleus. The images of tumor antigens recognized by the anti-sera were photographed at a 400× magnification using a Zeiss LSM 510 META confocal microscope (Carl Zeiss, Jena, Germany).

C[C@H](Cc1ccc(OCCN2CCCCC2)c(OCCN2CCCCC2)c1)[C@@H](C)Cc1ccc(OCCN2CCCCC2)c(OCCN2CCCCC2)c1 [P4N, meso-2,3-dimethyl-1,4-bis(3,4-[2-(piperidino)ethoxyphenyl])butane tetrakishydrochloride salt]
gene expression and protein production of Activin A and BAFF (mouse splenocytes): increase their gene expression and protein production
proliferation of T-cell-depleted PBMCs (Human B or T cells): increased the proliferation
proliferation of isolated T cells or B cells (Human B or T cells): did not induce the proliferation
levels of pro-inflammatory cytokines (TNF-α, IL-1P and IL-6) and chemokines (IL-8, IP-10, MIP-1α, MIP-1β and RANTES) (PBMCs): significantly increased
levels of IL-4, IL-5, IL-7, IL-9, Eotaxin and FGF (PBMCs; 48 h): undetectable
P4N-induced tumor inhibition under B cell-depletion (CT26 tumors; B cell depleted): abolished the effect of P4N-induced tumor inhibition
P4N-induced tumor inhibition under CD8+ T cell-depletion (CT26 tumors; CD8+ T cell depleted): only attenuated the effect of P4N-induced tumor inhibition
binding affinities of EAA (CT-26 cells): enhanced their binding affinities

From US20190111040A1, “IN VIVO AMELIORATION OF ENDOGENOUS ANTI-TUMOR AUTOANTIBODIES TARGETING SURFACE TUMOR ANTIGENS VIA LOW-DOSE P4N” (THE JOHNS HOPKINS UNIVERSITY, priority 2016, published 2019)
